The values that follow come from patent US7714014B2, “Targeting GLI proteins in human cancer by small molecules” (The Regents of the University of California, priority 2005, dated 2010).

One data set relates to LOX (melanoma). Description: Apoptosis analysis (Annexin V FITC, flow cytometry). Format: cell-based, human. To be noted: 3 days. As for the experimental part: Apoptosis was analyzed by using an Annexin V FITC Apoptosis Detection Kit (Biosource, Camarillo, Calif.), according to the manufacturer's protocol. After treatment with different small molecule compounds at various concentrations for about 3 days, cells were harvested by trypsinization, stained and immediately analyzed by flow cytometry (FACScan; Decton Dickinson, Franklin Lake, N.J.). Early apoptotic cells with exposed phosphatidylserine but intact cell membranes will bind to Annexin V-FITC, but not propidium iodide (PI). Cells in necrotic or late apoptotic stages will be labeled with both Annexin V-FITC and PI. “% apoptotic cells” or “% apoptosis” refers to the combined early and late apoptotic cells.
The cell killing of LOX cells by treatment with small molecule compounds FN1-5 and FN1-8 was analyzed in greater detail using various concentrations of these two compounds and flow cytometry. […] (Tables 2 and 3).

In another data set the test system is melanoma cell line LOX. The data set can be described thus: Cell survival assay (crystal violet). Format: cell-based, human. Conditions: for cell killing effect: 3 days. As for the experimental part: Typically, the small molecule compounds of the present invention were dissolved in DMSO at a concentration of 30 mM. The small molecule compounds were then tested under cell culture conditions at different concentrations ranging from 0, 10, 30, 50, to 100 uM. To determine cell survival after treatment, the cells were incubated with the small molecule compounds in 6-well plates for about 3 days. After removal of the cell culture medium, 1-ml of 0.5% crystal violet solution (prepared in 20% ethanol and 20% methanol) was added to stain the cells for 5 min. Then the crystal violet solution was rinsed clean with tap water. Cell survival was estimated based on the density of crystal stained plates.
The effect of small molecule compounds FN1-5, FN1-8, FN1-7, FN1-9U, and FN1-9S was tested using a cytotoxicity assay and the melanoma cell line LOX. LOX cells were plated in 6-well plates and incubated with 100 μM of each compound (stocks were dissolved in DMSO at 30 mM) for 3 days, as described herein. […] Live cells were stained by 0.5% crystal violet.
Cell killing was also tested using human melanoma cell line LOX and different doses of the small molecule compounds FN1-5 and FN1-8. LOX cells were plated in 6-well plates and incubated with 10, 30, and 50 μM of each compound for 3 days, as described herein.

Data set [1] relates to Dvl-3, cytosolic β-catenin, Survivin in NSCLC cells H460, A549, and H838. The data set can be described thus: Western blot of canonical Wnt signaling components. It counts as cell-based, human. Conditions: 30 μM, 2 days; for Dvl-3 and cytosolic beta-catenin levels (Western blot): H460, A549, H838. The procedure:
Whole proteins from cell cultures with or without treatments with small molecule compounds (30 μM for 2-3 days) were prepared using standard protocols (Pierce Biotechnology, Rockford, Ill.). Protein concentrations were measured using Bio-Rad Protein Assay reagent. Whole cell lysate protein (5-20 ug) were boiled for 5 min and separated by 10-20% SDS-PAGE. Proteins were transferred to an Immobilon-P membrane (Millipore Corp., Bedford, Mass.) using semi-dry transfer cell (Bio-Rad; Benicia, Calif.). The membranes were blocked with 5% nonfat milk powder and 0.1% Tween 20 in Tris-buffer saline overnight at 4° C. and then incubated with primary antibody for 1 h at room temperature. Membranes were washed in 5% nonfat milk powder and 0.1% Tween 20 in Tris-buffer saline for three 10-min periods. Horseradish peroxidase-conjugated goat anti-rabbit or donkey anti-mouse antibodies were used as secondary antibodies. Proteins were visualized with chemiluminescence luminol reagents (Santa Cruz Bio-technology). Anti-Dvl-3, and anti-Survivin, antibodies were from Santa Cruz Biotechnology (Santa Cruz, Calif.). Anti-Caspase3 antibody was from Oncogene (Cambridge, Mass.). Anti-β-Actin antibody was from Sigrna-Aldrich Corp. (St. Louis, Mo.). Anti-β-catenin antibody was from Transduction Laboratories (Lexington, Ky.). Anti-Cytochrome c antibody was from BD Biosciences (San Diego, Calif.). For detecting alteration of β-catenin cytosolic extracts were prepared and examined as described previously in the publications from our lab.
On the technique in general: A western blot detects proteins with antibodies after separation by electrophoresis.

Data set [2] in a line: Pharmacokinetic analysis in mice (oral administration). Format: in vivo, mouse. The procedure: In another pharmacokinetic study, three mice were orally administrated with the small molecule compound FN1-5 at the dose of 30 mg/kg body weight. Then, as described above, plasma was collected from the tail-vein of each mouse and the concentration of FN1-5 in each plasma sample was determined by mass spectroscopy.
Similarly, the pharmacokinetic properties of orally administered small molecule compound FN1-8 were analyzed (FIG. 22B). Comparing the uptake of FN1-8 to FN1-5, the uptake of FN1-5 after oral administration seems to be better, by about 7 fold.

Data set [3] has as its system GLI1-induced transcription in melanoma cell lines Malme-3M, A375, SK-Mel-2, SK-Mel-5. Description: 6xGLI BS-luciferase reporter assay. It counts as cell-based, human. To be noted: 20 μM, 16-20 hours. As for the experimental part: One day before transfection, cells (1×10^5) were plated in 12-well plates with growth medium without antibiotics. When cells reached 80-90% of confluence they were co-transfected using 0.5 μg of each promoter construct in pGL3Basic vector and 0.025 μg pRL-TK Vector (Promega; Madison, Wis.) containing Renilla Luciferase as an internal control for the transformation efficiency. Lipofectamine 2000™ (Invitrogen Life Technologies) was used to mediate transfection for about 6 hours. […] Briefly, cells were lysed in a lysis buffer and Firefly and Renilla Luciferase activities in cells of each well, were measured using Dual-Luciferase Assay System (Promega) and an illuminometer. The measured luciferase activities were normalized to pRL-TK Vector activity and were given relative to the basal activity of empty pGL3-Basic Vector, which was set to unity. The data shown represent mean values (±S.D.). All measurements were performed in triplicate and repeated in at least three independent experiments. The human Wnt-2 promoter-luciferase construct, the human SOCS3 promoter-Luciferase construct and the human Gremlin promoter-luciferase construct were cloned and characterized in the laboratory of Dr. Jablons at the University of California, San Francisco (San Francisco, Calif.; He et al., Biochem Biophy Res Comm, 2003; and unpublished data). […]
For orientation: In a reporter assay the amount or activity of a reporter protein is the signal.

SMILES strings stand for the structures. “Also recorded” adds a separate entry of the source. Bounds are passed on as bounds.

For `O=C(NCCCCCO)C1C(c2ccccc2)=NN(c2ccccc2)C1c1ccccc1` (stereo not drawn) [FN1-5, N-(5-Hydroxypentyl)-1,3,5-triphenyl-4,5-dihydro-pyrazole-4-carboxyamide], the results for the “% of apoptotic cells” value in the data set on LOX (melanoma) (10 μM), in the data set on LOX (melanoma) (30 μM) and in the data set with LOX (melanoma) (50 μM) were 14.0%, 16.6% and 58.1%, respectively. Also, the cell killing effect result in the data set with melanoma cell line LOX (50 μM) is “Dramatic cell killing effect”; with melanoma cell line LOX (100 μM), “dramatic cell killing effect”. In data set [1], the “Dvl-3 and cytosolic beta-catenin levels (Western blot)” value is listed as “suppress canonical Wnt signaling”. The “uptake of FN1-5 relative to FN1-8” value in data set [2] (oral administration) is given as “about 7 fold”. Also, the “time of uptake into plasma” value in data set [2] (oral, 30 mg/kg) is reported as no more than 10 min. In addition, the “time within which plasma concentration diminishes” value in data set [2] (oral, 30 mg/kg) is no more than 24 h.

Turning to `O=C(NCCc1ccc(O)cc1)C1C(c2ccccc2)=NN(c2ccccc2)C1c1ccccc1` (stereo not drawn) [FN1-8, N-(2-(4-Hydroxyphenyl)ethyl)-1,3,5-triphenyl-4,5-dihydro-pyrazole-4-carboxyamide], the “% of apoptotic cells” value in the data set on LOX (melanoma) (10 μM) was determined as 16.7%; in the data set on LOX (melanoma) (30 μM) it was 19.0%; in the data set with LOX (melanoma) (50 μM) it was 78.9%. For the same compound, the cell killing effect entry is recorded as “Dramatic cell killing effect” in the data set with melanoma cell line LOX (50 μM) and “dramatic cell killing effect” with melanoma cell line LOX (100 μM). Besides, in the data set with melanoma cell line LOX (compared at 30 μM), the “cell killing potency compared with FN1-5” value is on record as “more potent than FN1-5”. Also, the “6xGLI BS-luciferase activity (GLI1-induced)” value in data set [3] is recorded as “significantly reduced level of luciferase activity; also recorded: down-regulates GLI1-induced transcription activity”. Also, in data set [1], the “Survivin level (Western blot)” value is listed as “down-regulated”. The “Dvl-3 and cytosolic beta-catenin levels (Western blot)” value in data set [1] is on record as “dramatic down-regulation; also recorded: suppress canonical Wnt signaling”.
